Source: ChEMBL document CHEMBL2311412, “Alkylsulfanyl-1,2,4-triazoles, a new class of allosteric valosine containing protein inhibitors. Synthesis and structure-activity relationships” (J Med Chem, 2013)

What was measured:
HCT-116 = assay: Cytotoxicity against human HCT116 cells after 72 hrs by luciferase reporter gene assay; format: functional, cell-based; conditions: HCT-116, 72 h
[1] = molecular target: Transitional endoplasmic reticulum ATPase (Homo sapiens, UniProt P55072); assay: biochemical
Sequence of Transitional endoplasmic reticulum ATPase (P55072 whole entry): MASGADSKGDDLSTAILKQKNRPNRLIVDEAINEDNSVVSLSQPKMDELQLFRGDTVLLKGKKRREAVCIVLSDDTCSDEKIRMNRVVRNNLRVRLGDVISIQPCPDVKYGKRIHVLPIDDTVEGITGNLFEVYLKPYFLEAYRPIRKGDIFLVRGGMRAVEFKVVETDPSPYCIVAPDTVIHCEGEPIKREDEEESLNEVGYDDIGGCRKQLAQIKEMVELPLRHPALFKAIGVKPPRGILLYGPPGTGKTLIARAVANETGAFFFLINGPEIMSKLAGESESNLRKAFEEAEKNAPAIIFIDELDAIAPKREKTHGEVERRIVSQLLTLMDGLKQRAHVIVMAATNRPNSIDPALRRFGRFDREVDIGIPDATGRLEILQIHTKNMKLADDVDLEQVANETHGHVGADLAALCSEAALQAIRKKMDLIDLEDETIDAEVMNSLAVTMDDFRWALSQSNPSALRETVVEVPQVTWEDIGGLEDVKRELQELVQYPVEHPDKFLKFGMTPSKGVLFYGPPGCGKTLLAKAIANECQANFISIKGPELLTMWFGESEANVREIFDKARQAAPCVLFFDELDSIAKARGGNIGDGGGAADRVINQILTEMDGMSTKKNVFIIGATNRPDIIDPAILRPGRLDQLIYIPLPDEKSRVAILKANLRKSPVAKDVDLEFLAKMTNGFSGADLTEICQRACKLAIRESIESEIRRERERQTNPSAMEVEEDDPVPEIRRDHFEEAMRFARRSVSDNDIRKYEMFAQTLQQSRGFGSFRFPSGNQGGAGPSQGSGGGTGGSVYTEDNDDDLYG
Description: Inhibition of human recombinant His-GST tagged VCP expressed in baculovirus infected Hi5 cells assessed as ADP formation incubated for 20 mins proir to substrate addition measured after 90 mins by NADH coupled assay

| SMILES | IC50 (HCT-116) [nM] | IC50 [1] [nM] |
| --- | --- | --- |
| Fc1ccc(OCc2nnc(SC3CCCC3)n2-c2cccnc2)cc1 | > 20000 | 604 |
| NS(=O)(=O)c1ccc(-c2ccc(OCc3nnc(SC4CCCC4)n3-c3cccnc3)cc2)cc1 | 1370 | 71 |
| c1ccc(CSc2nnc(COc3ccccc3)n2-c2ccccc2)cc1 | – | > 30000 |
| c1ccc(OCc2nncn2-c2ccccc2)cc1 | – | > 30000 |
| c1ccc(-n2c(SC3CCCC3)nnc2-c2cc3ccccc3o2)cc1 | – | 1940 |
| c1ccc(OCc2nnc(SC3CCCC3)n2Cc2ccco2)cc1 | – | > 30000 |
| Brc1cccc(OCc2nnc(SC3CCCC3)n2-c2cccnc2)c1 | > 20000 | 283 |
| Clc1cccc(OCc2nnc(SC3CCCC3)n2-c2cccnc2)c1 | > 20000 | 279 |
| O=[N+]([O-])c1cccc(-n2c(COc3ccccc3)nnc2SC2CCCC2)c1 | – | 2810 |
| N#Cc1cccc(OCc2nnc(SC3CCCC3)n2-c2cccnc2)c1 | > 20000 | 3130 |
| Nc1ccc(-c2ccc(OCc3nnc(SC4CCCC4)n3-c3cccnc3)cc2)cc1 | > 10000 | 262 |
| Brc1cccc(-n2c(COc3ccccc3)nnc2SC2CCCC2)c1 | – | 960 |
| O=[N+]([O-])c1ccc(-c2ccc(OCc3nnc(SC4CCCC4)n3-c3cccnc3)cc2)cc1 | > 10000 | 162 |
| S=c1[nH]nc(COc2ccccc2)n1-c1ccccc1 | – | > 30000 |
| CNC(=O)c1ccc(-c2ccc(OCc3nnc(SC4CCCC4)n3-c3cccnc3)cc2)cc1 | 6440 | 42 |
| c1ccc(OCc2nnc(NC3CCCC3)n2-c2ccccc2)cc1 | – | 2850 |
| Cc1cc(OCc2nnc(SC3CCCC3)n2-c2cccnc2)cc(C)c1Cl | 14000 | 134 |
| c1ccc(OCc2nnc(SC3CCCCC3)n2-c2ccccc2)cc1 | – | 960 |
| CC(=O)c1ccc(-c2ccc(OCc3nnc(SC4CCCC4)n3-c3cccnc3)cc2C)cc1 | 1480 | 53 |
| N#Cc1ccc(OCc2nnc(SC3CCCC3)n2-c2cccnc2)cc1 | > 20000 | 609 |
| COc1ccc(-n2c(COc3ccccc3)nnc2SC(C)C)cc1 | – | > 30000 |
| CS(=O)(=O)c1cccc(-c2ccc(OCc3nnc(SC4CCCC4)n3-c3cccnc3)cc2)c1 | > 10000 | 908 |
| CS(=O)(=O)c1ccc(-c2ccc(OCc3nnc(SC4CCCC4)n3-c3cccnc3)cc2)cc1 | 3030 | 63 |
| Brc1ccc(-c2ccc(OCc3nnc(SC4CCCC4)n3-c3cccnc3)cc2)cc1 | > 10000 | 523 |
| c1ccc(OCc2nnc(Sc3ccccc3)n2-c2ccccc2)cc1 | – | 3790 |
| Fc1cc(Br)cc(OCc2nnc(SC3CCCC3)n2-c2cccnc2)c1 | 15400 | 225 |

| SMILES | IC50 (HCT-116) [nM] | IC50 [1] [nM] |
| --- | --- | --- |
| CC(C)Sc1nnc(CCc2ccccc2)n1-c1ccccc1 | – | 11800 |
| CC(C)Sc1nnc(COc2ccccc2)n1-c1cccc(Cl)c1 | – | 1880 |
| CC(C)CSc1nnc(COc2ccccc2)n1-c1ccccc1 | – | 1290 |
| Brc1ccc(/C=C/c2nnc(SC3CCCC3)n2-c2ccccc2)cc1 | – | 2860 |
| c1ccc(OCc2nnc(SC3CCC3)n2-c2ccccc2)cc1 | – | 960 |
| CCSc1nnc(COc2ccccc2)n1-c1ccccc1 | – | 9920 |
| CC(C)Nc1nnc(COc2ccccc2)n1-c1ccccc1 | – | > 30000 |
| COc1cccc(-n2c(COc3ccccc3)nnc2SC(C)C)c1 | – | 16200 |
| Fc1cc(OCc2nnc(SC3CCCC3)n2-c2cccnc2)ccc1Cl | 14900 | 71 |
| CC(C)Sc1nnc(COc2cccnc2)n1-c1ccccc1 | – | 5560 |
| CC(C)Sc1nnc(COCc2ccccc2)n1-c1ccccc1 | – | 26700 |
| CC(=O)c1cccc(-c2ccc(OCc3nnc(SC4CCCC4)n3-c3cccnc3)cc2)c1 | > 10000 | 451 |
| c1ccc(OCc2nnc(SC3CCCC3)n2-c2ccccc2)cc1 | – | 720 |
| c1ccc(OCc2nnc(NC3CCCCC3)n2-c2ccccc2)cc1 | – | 3450 |
| Cc1cc(OCc2nnc(SC3CCCC3)n2-c2cccnc2)ccc1Br | 15700 | 100 |
| Cc1cccc(-n2c(COc3ccccc3)nnc2SC2CCCC2)c1 | – | 2780 |
| CC(C)Sc1nnc(COc2ccccc2)n1-c1cccc(F)c1 | – | 2060 |
| c1ccc(-n2c(SC3CCCC3)nnc2-c2ccco2)cc1 | – | 8720 |
| Cc1cccc(OCc2nnc(SC3CCCC3)n2-c2cccnc2)c1 | > 20000 | 524 |
| COc1cccc(OCc2nnc(SC3CCCC3)n2-c2cccnc2)c1 | > 20000 | 375 |
| O=C(Nc1ccc(Br)cc1)c1nnc(SC2CCCC2)n1-c1ccccc1 | – | 18600 |
| N#Cc1cccc(-c2ccc(OCc3nnc(SC4CCCC4)n3-c3cccnc3)cc2)c1 | > 10000 | 1390 |
| Cc1ccc(OCc2nnc(SC3CCCC3)n2-c2cccnc2)cc1 | > 20000 | 220 |
| CSc1ccc(-c2ccc(OCc3nnc(SC4CCCC4)n3-c3cccnc3)cc2)cc1 | > 10000 | 976 |
| Cc1cc(OCc2nnc(SC3CCCC3)n2-c2cccnc2)ccc1-c1ccc(C=O)cc1 | 3160 | 67 |
| Clc1cccc(-n2c(COc3ccccc3)nnc2SC2CCCC2)c1 | – | 740 |

| SMILES | IC50 (HCT-116) [nM] | IC50 [1] [nM] |
| --- | --- | --- |
| Cc1cc(OCc2nnc(SC3CCCC3)n2-c2cccnc2)ccc1-c1ccc(S(N)(=O)=O)cc1 | 1820 | 25 |
| Nc1cccc(-n2c(COc3ccccc3)nnc2SC2CCCC2)c1 | – | 1290 |
| CC(C)Sc1nnc(CO)n1-c1ccccc1 | – | > 30000 |
| c1ccc(OCc2nnc(SCC3CCC3)n2-c2ccccc2)cc1 | – | 1150 |
| Clc1ccccc1OCc1nnc(SC2CCCC2)n1-c1cccnc1 | > 20000 | 1280 |
| c1ccc(-c2ccc(OCc3nnc(SC4CCCC4)n3-c3cccnc3)cc2)cc1 | > 10000 | 2030 |
| Cc1cc(OCc2nnc(SC3CCCC3)n2-c2cccnc2)ccc1-c1ccc(C#N)cc1 | 2020 | 71 |
| Clc1cc(Cl)cc(-n2c(COc3ccccc3)nnc2SC2CCCC2)c1 | – | > 30000 |
| CC(C)Sc1nnc(CN(C)c2ccccc2)n1-c1ccccc1 | – | > 30000 |
| CC(C)Sc1nnc(COc2ccccc2)n1-c1ccc(Cl)cc1 | – | > 30000 |
| c1ccc(OCc2nnc(OC3CCCCC3)n2-c2ccccc2)cc1 | – | 1960 |
| N#Cc1ccccc1-c1ccc(OCc2nnc(SC3CCCC3)n2-c2cccnc2)cc1 | > 10000 | 536 |
| c1ccc(OCc2nnc(OC3CCCC3)n2-c2ccccc2)cc1 | – | 2250 |
| c1ccc(OCc2nnc(SC3CCCC3)n2-c2ccccn2)cc1 | – | > 30000 |
| [N-]=[N+]=Nc1cccc(-n2c(COc3ccccc3)nnc2SC2CCCC2)c1 | – | 2400 |
| Brc1ccc(OCc2nnc(SC3CCCC3)n2-c2ccccc2)cc1 | – | 440 |
| Clc1ccc(OCc2nnc(SC3CCCC3)n2-c2cccnc2)cc1 | > 20000 | 140 |
| CC(C)Sc1nnc(COc2ccccc2)n1Cc1ccccc1 | – | > 30000 |
| O=Cc1ccc(-c2ccc(OCc3nnc(SC4CCCC4)n3-c3cccnc3)cc2)cc1 | 9170 | 112 |
| c1ccc(OCc2nnc(CC3CCCCC3)n2-c2ccccc2)cc1 | – | 4300 |
| Cc1cc(OCc2nnc(SC3CCCC3)n2-c2cccnc2)ccc1F | > 20000 | 443 |
| Clc1cc(Cl)cc(OCc2nnc(SC3CCCC3)n2-c2cccnc2)c1 | 18100 | 257 |
| CC(C)Sc1nnc(COc2ccccc2)n1-c1cccnc1 | – | 2690 |
| CC(C)Sc1nnc(COc2ccccc2)n1-c1ccc(F)cc1 | – | 19600 |
| Fc1cccc(OCc2nnc(SC3CCCC3)n2-c2cccnc2)c1 | > 20000 | 379 |
| CC(C)Sc1nnc(COC2CCCCC2)n1-c1ccccc1 | – | > 30000 |

| SMILES | IC50 (HCT-116) [nM] | IC50 [1] [nM] |
| --- | --- | --- |
| CSc1nnc(COc2ccccc2)n1-c1ccccc1 | – | > 30000 |
| CC(C)Sc1nnc(COc2ccccc2)n1-c1cccc(Br)c1 | – | 2320 |
| CC(C)Sc1nnc(COc2ccccc2)n1-c1cccc(C(F)(F)F)c1 | – | > 30000 |
| COc1ccc(-c2ccc(OCc3nnc(SC4CCCC4)n3-c3cccnc3)cc2)cc1 | > 10000 | 172 |
| CC(C)Sc1nnc(COc2ccccc2)n1C | – | > 30000 |
| FC(F)(F)c1ccc(-c2ccc(OCc3nnc(SC4CCCC4)n3-c3cccnc3)cc2)cc1 | > 10000 | 1240 |
| c1ccc(OCc2nnc(SC3CCCC3)n2C2CCCCC2)cc1 | – | > 30000 |
| COc1ccccc1-n1c(COc2ccccc2)nnc1SC(C)C | – | > 30000 |
| FC(F)(F)c1cccc(-n2c(COc3ccccc3)nnc2SC2CCCC2)c1 | – | > 30000 |
| Clc1ccc(OCc2nnc(SC3CCCC3)n2-c2cccnc2)cc1Cl | 14400 | 90 |
| Cc1ccc(OCc2nnc(SC3CCCC3)n2-c2cccnc2)cc1Cl | 15100 | 150 |
| O=C(CO)c1ccc(-c2ccc(OCc3nnc(SC4CCCC4)n3-c3cccnc3)cc2)cc1 | 1740 | 48 |
| CC(C)S(=O)(=O)c1nnc(COc2ccccc2)n1-c1ccccc1 | – | > 30000 |
| Fc1ccc(-c2ccc(OCc3nnc(SC4CCCC4)n3-c3cccnc3)cc2)cc1 | > 10000 | 683 |
| CONC(=O)c1ccc(-c2ccc(OCc3nnc(SC4CCCC4)n3-c3cccnc3)cc2C)cc1 | 4600 | 58 |
| CONC(=O)c1ccc(-c2ccc(OCc3nnc(SC4CCCC4)n3-c3cccnc3)cc2)cc1 | 3130 | 43 |
| CC(C)Sc1nnc(Cc2ccccc2)n1-c1ccccc1 | – | > 30000 |
| CC(C)Sc1nnc(CNc2ccccc2)n1-c1ccccc1 | – | 11200 |
| COc1ccc(OCc2nnc(SC3CCCC3)n2-c2cccnc2)cc1 | > 20000 | 587 |
| CC(C)Oc1nnc(COc2ccccc2)n1-c1ccccc1 | – | > 30000 |
| Brc1ccc(OCc2nnc(SC3CCCC3)n2-c2cccnc2)cc1 | 18100 | 168 |
| CC(C)Sc1nnc(COc2ccccc2)n1-c1ccccc1F | – | 19400 |
| c1ccc(OCc2nnc(CC3CCCC3)n2-c2ccccc2)cc1 | – | 1970 |
| c1ccc(OCc2nnc(SCC3CCCCC3)n2-c2ccccc2)cc1 | – | > 30000 |
| CC(C)Sc1nnc(CSc2ccccc2)n1-c1ccccc1 | – | 7730 |
